Reference: US7432278B2, “Dicationic imidazo[1,2-a]pyridines and 5,6,7,8-tetrahydro-imidazo[1,2-a]pyridines as antiprotozoal agents” (The University of North Carolina at Chapel Hill, priority 2004, dated 2008)
Counter-ions that a name gives are not always drawn. Like-named read-outs stand apart in the source and are kept apart here. One block for each compound: values may come before it.

How the values were obtained:
[1] = test system: Trypanosoma brucei rhodesiense; test: In vitro anti-protozoan activity against T. b. r.; type: cell-based; details: for IC50: read-out: T.b.r. IC50; for in vitro activity (in words): against T. b. r. and P. f. (Table 1)
Protocol: The DNA binding studies and both the in vitro and in vivo antiprotozoan studies were performed as described by Ismail. M. A., et al., J. Med. Chem., 46, 4761-4769 (2003), which is incorporated herein by reference in its entirety. […]

[2] = test system: Plasmodium falciparum; test: In vitro anti-protozoan activity against P. f.; type: cell-based; details: concentration that gives 50% growth inhibition, average of duplicate determinations, K = 1,000
Protocol: (§1) The DNA binding studies and both the in vitro and in vivo antiprotozoan studies were performed as described by Ismail. M. A., et al., J. Med. Chem., 46, 4761-4769 (2003), which is incorporated herein by reference in its entirety.

[3] = test system: T. b. r. (STIB900 acute infection); test: In vivo anti-trypanosomal activity in the STIB900 mouse model; details: for in vivo effectiveness on oral dosage (in words): STIB900 model; for Survival: average days of survival
Protocol: as §1
In this model five of the diamidines (8a, 8b, 7, 14b, 14a) give 4/4 cures and two, 13a and 14c, give 3/4 cures on intraperitoneal dosage. […] No attempts were made to optimize the formulation. […] One of ordinary skill in the art would appreciate that optimization of the formulation could improve the oral bioavailability of the prodrug.

[4] = test system: Poly-(dA.dT)2; test: DNA binding studies (ΔTm); details: DNA affinity
Protocol: as §1
Table 1 contains the results from the DNA binding studies for the new diamidines and the in vitro results for the compounds tested against T. b. r. and P. f. […] As a representative example of this class of compounds, compound 12 was evaluated and gave a ΔTm value of only 0.3.

[5] = Trypanosoma brucei, RHODESIENSE, concentration that gives 50% growth inhibition, average of duplicate determinations, K = 1,000
[6] = Mus musculus, 1440 h, po, 100 mg/kg, number of mice that survive and are parasite free for 60 days, read-out: Cures (converted)
[7] = Mus musculus, 1440 h, ip, 20 mg/kg, number of mice that survive and are parasite free for 60 days, read-out: Cures (converted)
[8] = Mus musculus, 1440 h, po, 75 mg/kg, number of mice that survive and are parasite free for 60 days, read-out: Cures
[9] = concentration that gives 50% growth inhibition, average of duplicate determinations, K = 1,000

melting point: 236 to 238 °C
SMILES: N=C(N)c1ccc(-c2cccc(-c3cn4c(n3)CCC(C(=N)N)C4)c2)cc1 (centres unmarked) (as salt: salt) [Compound 13b, 2-(4′-Amidinobiphenyl-3-yl)-5,6,7,8-tetrahydro-imidazo[1,2-a]pyridine-6-carboxamidine]

SMILES: N=C(NO)c1ccc(-c2ccc(-c3cn4cc(C(=N)NO)ccc4n3)o2)cc1 [Compound 5a, N-Hydroxy-2-{5-[4-(N-hydroxyamidino)-phenyl]-furan-2-yl}-imidazo[1,2-a]pyridine-6-carboxamidine]
IC50 [1, 5]: 2200 nM | in vitro activity (in words) [1]: essentially no in vitro activity | IC50 ([2]; Plasmodium falciparum): 1600 nM | responders at 50 mg/kg ([3]; Mus musculus, 1440 h, po, 50 mg/kg, number of mice that survive and are parasite free for 60 days, read-out: Cures (converted)): 25% | in vivo effectiveness on oral dosage (in words) [3]: did not show high in vivo effectiveness | Survival ([3]; po, 50 mg/kg): >19.5 days

SMILES: CONC(=N)c1ccc(-c2ccc(-c3cn4cc(C(=N)NOC)ccc4n3)o2)cc1 [Compound 6, N-Methoxy-2-{5-[4-(N-methoxyamidino)-phenyl]-furan-2-yl}-imidazo[1,2-a]pyridine-6-carboxamidine]
IC50 [1, 5]: 3000 nM | in vitro activity (in words) [1]: essentially no in vitro activity | IC50 ([2]; Plasmodium falciparum): 2800 nM | responders at 100 mg/kg [3, 6]: 50% | in vivo effectiveness on oral dosage (in words) [3]: did not show high in vivo effectiveness | Survival ([3]; po, 100 mg/kg): >39.5 days

SMILES: N=C(N)c1ccc(-c2ccc(-c3cn4c(n3)CCC(C(=N)N)C4)o2)cc1 (centres unmarked) [Compound 7, 2-[5-(4-Amidinophenyl)-furan-2-yl]-5,6,7,8-tetrahydro-imidazo[1,2-a]pyridine-6-carboxamidine]
IC50 [1, 5]: 52 nM | IC50 ([2]; Plasmodium falciparum): 1200 nM | responders at 5 mg/kg ([3]; Mus musculus, 1440 h, ip, 5 mg/kg, number of mice that survive and are parasite free for 60 days, read-out: Cures (converted)): 50% | responders at 20 mg/kg [3, 7]: 100% | Survival ([3]; ip, 5 mg/kg): >51 days | Survival ([3]; ip, 20 mg/kg): >60 days | ΔTm Poly-(dA.dT)2 [4]: 15.6 °C

SMILES: N=C(N)c1ccc(-c2ccc(-c3cn4cc(C(=N)N)ccc4n3)o2)cc1 [Compound 8a, 2-[5-(4-Amidinophenyl)-furan-2-yl]-imidazo[1,2-a]pyridine-6-carboxamidine]
IC50 [1, 5]: 63 nM | IC50 ([2]; Plasmodium falciparum): 14 nM | responders at 20 mg/kg [3, 7]: 100% | Survival ([3]; ip, 20 mg/kg): >60 days | ΔTm Poly-(dA.dT)2 [4]: 26.2 °C

SMILES: Cc1cc(C(=N)N)cn2cc(-c3ccc(-c4ccc(C(=N)N)cc4)o3)nc12 [Compound 8b, 2-[5-(4-Amidinophenyl)-furan-2-yl]-8-methyl-imidazo[1,2-a]pyridine-6-carboxamidine]
IC50 [1, 5]: 6 nM | IC50 ([2]; Plasmodium falciparum): 88 nM | responders at 20 mg/kg [3, 7]: 100% | Survival ([3]; ip, 20 mg/kg): >60 days | ΔTm Poly-(dA.dT)2 [4]: > 27 °C

SMILES: N=C(NO)c1ccc(-c2ccc(-c3cn4cc(C(=N)NO)ccc4n3)cc2)cc1 [Compound 11a, N-Hydroxy-2-[4′-(N-hydroxyamidino)-biphenyl-4-yl]-imidazo[1,2-a]pyridine-6-carboxamidine]
IC50 [1, 5]: > 166000 nM | in vitro activity (in words) [1]: essentially no in vitro activity | IC50 ([2]; Plasmodium falciparum): 521 nM | responders at 75 mg/kg [3, 8]: 0% | in vivo effectiveness on oral dosage (in words) [3]: did not show high in vivo effectiveness | Survival ([3]; po, 75 mg/kg): 28 days

melting point: 252 to 254 °C
SMILES: N=C(NO)c1ccc(-c2cccc(-c3cn4cc(C(=N)NO)ccc4n3)c2)cc1 [Compound 11b, N-Hydroxy-2-[4′-(N-hydroxyamidino)-biphenyl-3-yl]-imidazo[1,2-a]pyridine-6-carboxamidine]

melting point: 193 to 195 °C
SMILES: Cc1cc(C(=N)NO)cn2cc(-c3cccc(-c4ccc(C(=N)NO)cc4)c3)nc12 [Compound 11c, N-Hydroxy-2-[4′-(N-hydroxyamidino)-biphenyl-3-yl]-8-methyl-imidazo[1,2-a]pyridine-6-carboxamidine]

SMILES: CONC(=N)c1ccc(-c2ccc(-c3cn4cc(C(=N)NOC)ccc4n3)cc2)cc1 [Compound 12, N-Methoxy-2-[4′-(N-methoxyamidino)-biphenyl-4-yl]-imidazo[1,2-a]pyridine-6-carboxamidine]
IC50 [1, 5]: 5300 nM | in vitro activity (in words) [1]: essentially no in vitro activity | IC50 ([2]; Plasmodium falciparum): 395 nM | responders at 75 mg/kg [3, 8]: 0% | in vivo effectiveness on oral dosage (in words) [3]: did not show high in vivo effectiveness | Survival ([3]; po, 75 mg/kg): 20 days | ΔTm Poly-(dA.dT)2 [4]: 0.3 °C

SMILES: N=C(N)c1ccc(-c2ccc(-c3cn4c(n3)CCC(C(=N)N)C4)cc2)cc1 (centres unmarked) [Compound 13a, 2-(4′-Amidinobiphenyl-4-yl)-5,6,7,8-tetrahydro-imidazo[1,2-a]pyridine-6-carboxamidine]
IC50 [1, 5]: 116 nM | IC50 ([2]; Plasmodium falciparum): 14 nM | responders at 10 mg/kg ([3]; Mus musculus, 1440 h, ip, 10 mg/kg, number of mice that survive and are parasite free for 60 days, read-out: Cures (converted)): 75% | Survival ([3]; ip, 10 mg/kg): >51.5 days | ΔTm Poly-(dA.dT)2 [4]: 21.3 °C

IC50 [1, 5]: 226 nM | IC50 ([2]; Plasmodium falciparum): 86 nM | ΔTm Poly-(dA.dT)2 [4]: 19.1 °C
SMILES: N=C(N)c1ccc(-c2cccc(-c3cn4c(n3)CCC(C(=N)N)C4)c2)cc1 (centres unmarked) [Compound 13b, 2-(4′-Amidinobiphenyl-3-yl)-5,6,7,8-tetrahydro-imidazo[1,2-a]pyridine-6-carboxamidine]

SMILES: N=C(N)c1ccc(-c2ccc(-c3cn4cc(C(=N)N)ccc4n3)cc2)cc1 [Compound 14a, 2-(4′-Amidinobiphenyl-4-yl)-imidazo[1,2-a]pyridine-6-carboxamidine]
IC50 [1, 5]: 1 nM | IC50 ([2]; Plasmodium falciparum): 43 nM | responders at 20 mg/kg [3, 7]: 100% | Survival ([3]; ip, 20 mg/kg): >60 days | ΔTm Poly-(dA.dT)2 [4]: 24.2 °C

SMILES: N=C(N)c1ccc(-c2cccc(-c3cn4cc(C(=N)N)ccc4n3)c2)cc1 [Compound 14b, 2-(4′-Amidinobiphenyl-3-yl)-imidazo[1,2-a]pyridine-6-carboxamidine]
IC50 [1, 5]: 22 nM | IC50 ([2]; Plasmodium falciparum): 107 nM | responders at 20 mg/kg [3, 7]: 100% | Survival ([3]; ip, 20 mg/kg): >60 days | ΔTm Poly-(dA.dT)2 [4]: > 27 °C

SMILES: Cc1cc(C(=N)N)cn2cc(-c3cccc(-c4ccc(C(=N)N)cc4)c3)nc12 [Compound 14c, 2-(4′-Amidinobiphenyl-3-yl)-8-methyl-imidazo[1,2-a]pyridine-6-carboxamidine]
IC50 [1, 5]: 49 nM | IC50 ([2]; Plasmodium falciparum): 86 nM | responders at 20 mg/kg [3, 7]: 75% | Survival ([3]; ip, 20 mg/kg): >50 days | ΔTm Poly-(dA.dT)2 [4]: > 27 °C

SMILES: N=C(N)c1ccc(-c2cn3c(n2)CCC(c2ccc(C(=N)N)cc2)C3)cc1 (centres unmarked) [Compound 18]
IC50 [1, 9]: 14 nM | IC50 [2]: 85 nM

SMILES: N=C(N)c1ccc(-c2ccc3nc(-c4ccc(C(=N)N)cc4)cn3c2)cc1 [Compound 19]
IC50 [1, 9]: 7 nM | IC50 [2]: 92 nM

SMILES: CONC(=N)c1ccc(-c2ccc(-c3ccc(C(=N)NOC)cc3)o2)cc1 [Compound IIIa, 2,5-Bis[4-(methoxyamidino)phenyl]furan, reference compound]
IC50 [1, 5]: 4.5 nM | IC50 ([2]; Plasmodium falciparum): 15.5 nM | responders at 100 mg/kg [3, 6]: 100% | Survival ([3]; po, 100 mg/kg): >60 days | ΔTm Poly-(dA.dT)2 [4]: 25 °C

SMILES: N=C(N)c1ccc(-c2ccc(-c3ccc(C(=N)N)cc3)o2)cc1 [Furamidine(IIa), 2,5-Bis(4-amidinophenyl)furan, reference compound]
IC50 ([1]; Trypanosoma brucei, RHODESIENSE): 14600 nM | responders at 20 mg/kg ([3]; Mus musculus, ip, 1440 h, read-out: Cures): 0% | Survival ([3]; ip, 20 mg/kg): 52.5 days

SMILES: N=C(N)c1ccc(OCCCCCOc2ccc(C(=N)N)cc2)cc1 [Pentamidine(I), Pentamidine, reference compound]
responders at 20 mg/kg [3, 7]: 0% | Survival ([3]; ip, 20 mg/kg): 40.8 days | ΔTm Poly-(dA.dT)2 [4]: 12 °C
